The IC50 is the concentration needed to halve the response being measured. Read a low IC50 as inhibition by little substance.

Data on 28 compounds can be found in US10160755B2 (Plexxikon Inc., priority 2015, dated 2018).

c-Kit, sequence (P10721 26-976): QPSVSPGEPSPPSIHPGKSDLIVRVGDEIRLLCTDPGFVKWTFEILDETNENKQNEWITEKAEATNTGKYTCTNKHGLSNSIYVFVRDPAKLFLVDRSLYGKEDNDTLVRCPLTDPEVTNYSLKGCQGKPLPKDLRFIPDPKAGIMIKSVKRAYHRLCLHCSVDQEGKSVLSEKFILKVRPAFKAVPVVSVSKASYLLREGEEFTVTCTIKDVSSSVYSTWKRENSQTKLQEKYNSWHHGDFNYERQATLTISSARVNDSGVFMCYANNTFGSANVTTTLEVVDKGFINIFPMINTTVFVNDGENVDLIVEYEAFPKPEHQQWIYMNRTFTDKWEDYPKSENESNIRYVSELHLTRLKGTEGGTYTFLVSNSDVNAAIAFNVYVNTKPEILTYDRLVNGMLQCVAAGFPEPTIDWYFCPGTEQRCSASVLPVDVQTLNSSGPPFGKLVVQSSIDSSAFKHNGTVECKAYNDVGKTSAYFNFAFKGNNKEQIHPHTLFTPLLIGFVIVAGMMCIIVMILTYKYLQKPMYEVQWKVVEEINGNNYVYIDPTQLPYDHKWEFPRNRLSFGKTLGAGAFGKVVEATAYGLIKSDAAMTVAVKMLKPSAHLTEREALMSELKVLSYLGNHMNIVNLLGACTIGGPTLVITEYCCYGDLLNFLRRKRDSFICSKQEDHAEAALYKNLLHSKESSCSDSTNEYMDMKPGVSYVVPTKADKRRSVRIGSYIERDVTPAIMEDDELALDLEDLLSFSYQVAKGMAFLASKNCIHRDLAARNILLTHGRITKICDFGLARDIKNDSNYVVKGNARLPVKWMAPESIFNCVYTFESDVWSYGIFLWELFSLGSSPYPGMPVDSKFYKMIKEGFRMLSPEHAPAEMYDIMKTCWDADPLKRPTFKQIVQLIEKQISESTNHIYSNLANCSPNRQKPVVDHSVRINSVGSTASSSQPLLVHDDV

For the first test, the target named is T1, BA/F3-FLT3-ITD + F691L cells (Homo sapiens, UniProt P36888, F691L, cells depend on it, form not given).
T1 sequence (P36888 1-993 F691L): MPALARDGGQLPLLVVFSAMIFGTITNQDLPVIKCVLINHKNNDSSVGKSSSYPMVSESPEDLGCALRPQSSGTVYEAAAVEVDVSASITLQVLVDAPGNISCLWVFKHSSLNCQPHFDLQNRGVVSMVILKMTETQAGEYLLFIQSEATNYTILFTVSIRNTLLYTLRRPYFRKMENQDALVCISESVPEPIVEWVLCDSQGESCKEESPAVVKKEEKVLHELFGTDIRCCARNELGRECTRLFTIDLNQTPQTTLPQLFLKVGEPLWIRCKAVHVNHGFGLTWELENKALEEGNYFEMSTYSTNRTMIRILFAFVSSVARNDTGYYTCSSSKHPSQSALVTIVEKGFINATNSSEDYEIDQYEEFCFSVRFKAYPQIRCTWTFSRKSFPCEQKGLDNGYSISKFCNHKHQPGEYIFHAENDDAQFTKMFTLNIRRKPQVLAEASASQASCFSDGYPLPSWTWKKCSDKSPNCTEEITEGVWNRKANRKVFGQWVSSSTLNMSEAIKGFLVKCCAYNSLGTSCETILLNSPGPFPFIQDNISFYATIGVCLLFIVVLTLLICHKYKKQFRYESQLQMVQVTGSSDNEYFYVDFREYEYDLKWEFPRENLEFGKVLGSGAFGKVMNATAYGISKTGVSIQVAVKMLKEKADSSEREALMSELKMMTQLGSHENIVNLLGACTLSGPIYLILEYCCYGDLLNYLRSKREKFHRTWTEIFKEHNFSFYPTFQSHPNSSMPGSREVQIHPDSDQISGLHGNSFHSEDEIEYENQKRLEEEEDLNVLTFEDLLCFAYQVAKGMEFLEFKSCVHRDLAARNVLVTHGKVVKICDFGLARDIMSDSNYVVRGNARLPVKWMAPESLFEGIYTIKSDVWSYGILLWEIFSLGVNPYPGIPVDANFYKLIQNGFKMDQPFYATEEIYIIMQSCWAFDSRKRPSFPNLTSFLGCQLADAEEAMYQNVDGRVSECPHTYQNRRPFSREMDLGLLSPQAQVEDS
Briefly: BA/F3-FLT3-ITD + F691L cell proliferation assay (CellTiter-Glo). The note with it: BaF3 FLT3 ITD/F691L cells; read-out: Cell Activity (IC50 μM) BaF3_FLT3_ITD/F691L. The test is classed as cell-based, murine. The essentials: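 Three-day growth assay, IC50 from CellTiter-Glo ATP luminescence vs concentration. Compounds at 10 to 0.0046 μM (1:3 steps, final DMSO 0.2%) on 1×10^4 cells/well. Cells are IL-3-independent BA/F3 lines engineered to express full-length FLT3-ITD with the D835Y or the F691L mutation.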
For orientation: In ATP-based viability assays light output follows the ATP content of the culture.
For the compound `COc1cc(-c2cnc3[nH]cc(-c4ccc5ncn(C(C)(C)C)c5c4)c3n2)ccn1` [P-099, 7-(3-tert-butylbenzimidazol-5-yl)-2-(2-methoxy-4-pyridyl)-5H-pyrrolo[2,3-b]pyrazine], the GI50 lay in the range of 0.0001 to 1 µM. Turning to `COc1cnc2[nH]cc(-c3ccc4ncn(-c5cccc(C#N)c5)c4c3)c2c1` [P-135, 3-[6-(5-methoxy-1H-pyrrolo[2,3-b]pyridin-3-yl)benzimidazol-1-yl]benzonitrile], the GI50 was 0.0001 to 1 µM. Still for that read-out and setting: to `COc1cnc2[nH]cc(-c3ccc4ncn(-c5ccc(F)c(C)c5)c4c3)c2c1` [P-129, 1-(4-fluoro-3-methyl-phenyl)-6-(5-methoxy-1H-pyrrolo[2,3-b]pyridin-3-yl)benzimidazole] belongs 0.0001 to 1 µM; to `CN(c1cccc(-c2cnc3[nH]cc(-c4ccc5ncn(C)c5c4)c3c2)c1)S(C)(=O)=O` [P-120, N-methyl-N-[3-[3-(3-methylbenzimidazol-5-yl)-1H-pyrrolo[2,3-b]pyridin-5-yl]phenyl]methanesulfonamide], 0.0001 to 1 µM.

With `FC(F)(F)Oc1cccc(-c2cnc3[nH]cc(-c4ccc5ncn(C6CCCNC6)c5c4)c3n2)c1` (centres unmarked) [P-193, 7-[3-(3-piperidyl)benzimidazol-5-yl]-2-[3-(trifluoromethoxy)phenyl]-5H-pyrrolo[2,3-b]pyrazine], the GI50 was 0.0001 to 1 µM. As for `N#Cc1cccc(C#Cc2cnc3[nH]cc(-c4ccc5ncn(C6CCCNC6)c5c4)c3c2)c1` (centres unmarked) [P-243, 3-[2-[3-[3-(3-piperidyl)benzimidazol-5-yl]-1H-pyrrolo[2,3-b]pyridin-5-yl]ethynyl]benzonitrile], the GI50 lay in the range of 0.0001 to 1 µM.

For `O=S1(=O)CCCCN1c1cccc(-c2cnc3[nH]cc(-c4ccc5ncn(C6CCCNC6)c5c4)c3c2)c1` (centres unmarked) [P-224, 2-[3-[3-[3-(3-piperidyl)benzimidazol-5-yl]-1H-pyrrolo[2,3-b]pyridin-5-yl]phenyl]thiazinane 1,1-dioxide], the GI50 is 0.0001 to 1 µM. For `COc1cc(-c2cnc3[nH]nc(-c4ccc5ncn(C(C)(C)C)c5c4)c3c2)ccn1` [P-272, 3-(1-(tert-butyl)-1H-benzo[d]imidazol-6-yl)-5-(2-methoxypyridin-4-yl)-1H-pyrazolo[3,4-b]pyridine], the GI50 is 0.0001 to 1 µM. Still for that read-out and setting: to `Cn1cnc2ccc(-c3c[nH]c4ncc(-c5cnn(CC(F)(F)F)c5)cc34)cc21` [P-175, 1-methyl-6-[5-[1-(2,2,2-trifluoroethyl)pyrazol-4-yl]-1H-pyrrolo[2,3-b]pyridin-3-yl]benzimidazole] belongs 0.0001 to 1 µM; to `COc1ncc(-c2cnc3[nH]cc(-c4ccc5ncn(C(C)(C)C)c5c4)c3c2)cn1` [P-265, 1-(tert-butyl)-6-(5-(2-methoxypyrimidin-5-yl)-1H-pyrrolo[2,3-b]pyridin-3-yl)-1H-benzo[d]imidazole], 0.0001 to 1 µM. As for `CC(C)(C)n1cnc2ccc(-c3c[nH]c4ncc(-c5cccc(N6CCCS6(=O)=O)c5)nc34)cc21` [P-231, 2-[3-[7-(3-tert-butylbenzimidazol-5-yl)-5H-pyrrolo[2,3-b]pyrazin-2-yl]phenyl]-1,2-thiazolidine 1,1-dioxide], the GI50 fell in the range of 0.0001 to 1 µM. As to `CC(C)(C)n1cnc2ccc(-c3c[nH]c4ncc(-c5ccc(N6CCOCC6)cc5)nc34)cc21` [P-100, 4-[4-[7-(3-tert-butylbenzimidazol-5-yl)-5H-pyrrolo[2,3-b]pyrazin-2-yl]phenyl]morpholine], the GI50 lay in the range of 0.0001 to 1 µM. With `C#Cc1cnc2[nH]cc(-c3ccc4ncn(C5CCCNC5)c4c3)c2n1` (centres unmarked) [P-270, 2-ethynyl-7-[3-(3-piperidyl)benzimidazol-5-yl]-5H-pyrrolo[2,3-b]pyrazine], the GI50 is 0.0001 to 1 µM. With `FC(F)(F)Cn1cc(-c2cnc3[nH]cc(-c4ccc5ncn(C6CCCNC6)c5c4)c3n2)cn1` (centres unmarked) [P-258, 7-[3-(3-piperidyl)benzimidazol-5-yl]-2-[1-(2,2,2-trifluoroethyl)pyrazol-4-yl]-5H-pyrrolo[2,3-b]pyrazine], the GI50 fell in the range of 0.0001 to 1 µM.

As for `CC(C)(C)n1cnc2ccc(-c3c[nH]c4ncc(-c5ccc(F)c(C#N)c5)nc34)cc21` [P-230, 5-[7-(3-tert-butylbenzimidazol-5-yl)-5H-pyrrolo[2,3-b]pyrazin-2-yl]-2-fluoro-benzonitrile], the GI50 lay in the range of 0.0001 to 1 µM. Consider `CCCS(=O)(=O)Nc1cccc(-c2cnc3[nH]cc(-c4ccc5ncn(C(C)(C)C)c5c4)c3c2)c1` [P-216, N-[3-[3-(3-tert-butylbenzimidazol-5-yl)-1H-pyrrolo[2,3-b]pyridin-5-yl]phenyl]propane-1-sulfonamide], for which the GI50 was 0.0001 to 1 µM. Same read-out and setting: to `CC(C)(C)n1cnc2ccc(-c3c[nH]c4ncc(-c5cnn(CC(F)(F)F)c5)nc34)cc21` [P-256, 7-(3-tert-butylbenzimidazol-5-yl)-2-[1-(2,2,2-trifluoroethyl)pyrazol-4-yl]-5H-pyrrolo[2,3-b]pyrazine] belongs 0.0001 to 1 µM. As for `CC(C)(C)n1cnc2ccc(-c3c[nH]c4ncc(C#Cc5cccc(C#N)c5)cc34)cc21` [P-242, 3-[2-[3-(3-tert-butylbenzimidazol-5-yl)-1H-pyrrolo[2,3-b]pyridin-5-yl]ethynyl]benzonitrile], the GI50 is 1 to 10 µM.

`C#Cc1cnc2[nH]cc(-c3ccc4ncn(C(C)(C)C)c4c3)c2c1` [P-244, 1-tert-butyl-6-(5-ethynyl-1H-pyrrolo[2,3-b]pyridin-3-yl)benzimidazole]: the GI50 was 0.0001 to 1 µM.

For `CCCS(=O)(=O)Nc1cccc(-c2cnc3[nH]cc(-c4ccc5ncn(C6CCCNC6)c5c4)c3c2)c1` (centres unmarked) [P-217, N-[3-[3-[3-(3-piperidyl)benzimidazol-5-yl]-1H-pyrrolo[2,3-b]pyridin-5-yl]phenyl]propane-1-sulfonamide], the GI50 lay in the range of 0.0001 to 1 µM. As to `COc1cc(-c2cnc3[nH]cc(-c4ccc5ncn(C(C)(C)C)c5c4)c3c2)ccn1` [P-106, 1-tert-butyl-6-[5-(2-methoxy-4-pyridyl)-1H-pyrrolo[2,3-b]pyridin-3-yl]benzimidazole], the GI50 lay in the range of 0.0001 to 1 µM. In the case of `CC(C)(C)n1cnc2ccc(-c3c[nH]c4ncc(C#Cc5cccc(OC(F)(F)F)c5)nc34)cc21` [P-249, 7-(3-tert-butylbenzimidazol-5-yl)-2-[2-[3-(trifluoromethoxy)phenyl]ethynyl]-5H-pyrrolo[2,3-b]pyrazine], the GI50 lay within 1 to 10 µM. `COc1cc(-c2cnc3[nH]cc(-c4ccc5ncn(C(C)(C)CO)c5c4)c3n2)ccn1` [P-186, 2-[6-[2-(2-methoxy-4-pyridyl)-5H-pyrrolo[2,3-b]pyrazin-7-yl]benzimidazol-1-yl]-2-methyl-propan-1-ol]: the GI50 was in the range of 0.0001 to 1 µM. With `CC(C)(C)n1cnc2ccc(-c3c[nH]c4ncc(-c5cccc(S(=O)(=O)N6CCCC6)c5)nc34)cc21` [P-229, 7-(3-tert-butylbenzimidazol-5-yl)-2-(3-pyrrolidin-1-ylsulfonylphenyl)-5H-pyrrolo[2,3-b]pyrazine], the GI50 fell in the range of 0.0001 to 1 µM. For the compound `O=S(=O)(c1cccc(-c2cnc3[nH]cc(-c4ccc5ncn(C6CCCNC6)c5c4)c3c2)c1)N1CCCC1` (centres unmarked) [P-222, 1-(3-piperidyl)-6-[5-(3-pyrrolidin-1-ylsulfonylphenyl)-1H-pyrrolo[2,3-b]pyridin-3-yl]benzimidazole], the GI50 fell in the range of 0.0001 to 1 µM. Take `COc1cc(-c2cnc3[nH]cc(-c4ccc5ncn([C@@H]6CCCNC6)c5c4)c3n2)ccn1` [P-254, 2-(2-methoxy-4-pyridyl)-7-[3-[(3R)-3-piperidyl]benzimidazol-5-yl]-5H-pyrrolo[2,3-b]pyrazine]: the GI50 was 0.0001 to 1 µM. Take `CN(c1cccc(-c2cnc3[nH]cc(-c4ccc5ncn(C)c5c4)c3n2)c1)S(C)(=O)=O` [P-150, N-methyl-N-[3-[7-(3-methylbenzimidazol-5-yl)-5H-pyrrolo[2,3-b]pyrazin-2-yl]phenyl]methanesulfonamide]: the GI50 was in the range of 0.0001 to 1 µM. Same read-out and setting: to `COc1cnc2[nH]cc(-c3ccc4ncn(-c5ccc(Cl)cc5)c4c3)c2c1` [P-104, 1-(4-chlorophenyl)-6-(5-methoxy-1H-pyrrolo[2,3-b]pyridin-3-yl)benzimidazole] belongs 0.0001 to 1 µM.

Another test has as its target c-Kit (Homo sapiens, UniProt P10721). Put plainly: c-Kit biochemical assay (per US 2007/0032519).
Conditions: not given
The essentials: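 Biochemical kinase inhibition run per US 2007/0032519; values reported as binned IC50 ranges (0.0001–1 μM, 1–10 μM, 10–200 μM).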
`COc1cc(-c2cnc3[nH]cc(-c4ccc5ncn(C(C)(C)C)c5c4)c3n2)ccn1` [P-099, 7-(3-tert-butylbenzimidazol-5-yl)-2-(2-methoxy-4-pyridyl)-5H-pyrrolo[2,3-b]pyrazine] returned an IC50 of 1 to 10 µM. With `COc1cnc2[nH]cc(-c3ccc4ncn(-c5cccc(C#N)c5)c4c3)c2c1` [P-135, 3-[6-(5-methoxy-1H-pyrrolo[2,3-b]pyridin-3-yl)benzimidazol-1-yl]benzonitrile], the IC50 fell in the range of 10 to 200 µM. The same measure, in the same setting: to `COc1cnc2[nH]cc(-c3ccc4ncn(-c5ccc(F)c(C)c5)c4c3)c2c1` [P-129, 1-(4-fluoro-3-methyl-phenyl)-6-(5-methoxy-1H-pyrrolo[2,3-b]pyridin-3-yl)benzimidazole] belongs 10 to 200 µM. Turning to `CN(c1cccc(-c2cnc3[nH]cc(-c4ccc5ncn(C)c5c4)c3c2)c1)S(C)(=O)=O` [P-120, N-methyl-N-[3-[3-(3-methylbenzimidazol-5-yl)-1H-pyrrolo[2,3-b]pyridin-5-yl]phenyl]methanesulfonamide], the IC50 is 1 to 10 µM.
